Measured values from patent publication US7037656B2, “Methods and compositions for identifying ligands for nuclear receptors” (priority 2000, dated 2006).

Assays:
Test in all cases: Yeast 6x EcRE-lacZ β-galactosidase transactivation assay
Format in all cases: cell-based
Aa EcR = molecular target: T1, Aa EcR (Aedes aegypti, UniProt P49880, DEL155-194); conditions: RH 5992 10 μM, 4 hours, DMSO control 2.500
T1 construct: ubiquitin (human, 76 aa) (N, cleaved yes); expressed in transfected cells
Procedure: (§1) Briefly, yeast cells are cultured in 5 mL of YPD liquid medium overnight at 30° C. The cell culture was diluted 1:20 in YPD media and further grown until cell density reached an O.D of 0.6. at OD600. The cells were pelleted by centrifugation and washed with 10 mL of TE+0.1M lithium acetate. Cells are then resuspended in 10 mL TE+0.1M lithium acetate and incubated at 30° C. for 1 hour. Cells are collected and resuspended in 0.5 mL of TE+ 0.1M lithium acetate. Aliquots of cells (50 μL), were incubated for 15 minutes at 30° C. with 1–2 μg plasmid DNA in the presence of 5 μg of denatured salmon sperm DNA as DNA carrier. In the case of co-transformation, the indicated plasmids were added simultaneously. 50% polyethyleneglycol of molecular weight 4000, diluted in TE, was added to a final concentration of 35%. DMSO was added to the transformation solution simultaneously to a final concentration 3%. The samples were mixed well by vortexing and incubated for an additional 30 minutes at 30° C. The cell mixture is then heated for 15 minutes at 42° C. Cells were then collected and plated onto appropriate yeast selective media. Transformants of 4 plasmids are selected on the complete media without tryptophan, uracil, leucine and histidine.
(§2) The yeast cells grown overnight in selective liquid media at 30° C. were diluted in prewarmed liquid selective media to 0.1 at OD600 (ODculture). 100 μl of the cell culture was spiked to each well of a.96-well microtiter plate. […] After 4 hours of incubation, 100 μl of 2× “Z” Sarcosine-ONPG buffer (120 mM Na2HPO4, 80 mM NaH2PO4, 20 mM KCl, 2 mM MgSO4, 100 mM beta-mercaptoethanol (Sigma), pH 7.0, 0.4% lauroyl sarcosine (Sigma), 4 mg/mL ONPG (Diagnostic Chemicals limited) was added to each well and the plate was further incubated at 37° C. The 2× “Z” Sarcosine-ONPG buffer is freshly prepared or stored at −20° C. prior to use. After incubation at 37° C. for 1 hour. The reaction was stopped by adding 100 μL of quenching solution 0.5 M Na2CO3 and OD405 (ODreaction) and beta-galactosidase activity was measured in a micro plate reader (Biotek) at a wave length of 405–450 nanometers. […]
(§3) Using the transformation method described above, yeast were co-transformed with a reporter gene as shown in FIG. 2 and the expression vector encoding the full-length Aedes aegypti ecdysone receptor, Aa EcR (FIG. 7A) in the presence or absence of the Aa EcR heterodimer partner, Aa USP (a or b form, FIGS. 8A and 8B respectively). […] As the N-terminal portion of the AaEcR receptor is reported to play a role in ligand independent transactivation, an expression vector containing an N-terminal deletion in the Aa EcR was constructed (see FIG. 7B) and assessed in the β-galactosidase assays described above. […]

Aa ΔA/B EcR + Aa USPb = molecular target: T2, Aa ΔA/B EcR + Aa USPb (Aedes aegypti, UniProt P49880); conditions: RH 5992 10 μM, 4 hours, DMSO control 0.177
T2 construct: ubiquitin (human, 76 aa) (N, cleaved yes); expressed in transfected cells
Procedure: as §1, §2, §3

[1] = molecular target: T3, Aa ΔA/B EcR + Aa USPa + GRIP1 (Aedes aegypti, UniProt P49880); conditions: RH 5992 10 μM, 4 hours, DMSO control 0.272
T3 construct: ubiquitin (human, 76 aa) (N, cleaved yes); expressed in transfected cells
Procedure: as §1, §2, §3

[2] = molecular target: T4, Dm ΔN EcR + DmUSP + GRIP1 (Drosophila melanogaster, UniProt P34021); conditions: RH 5992 10 μM, 4 hours, DMSO control 0.424
T4 construct: ubiquitin (human, 76 aa) (N, cleaved yes); expressed in transfected cells
Procedure: as §1
(§4) The yeast cells grown overnight in selective liquid media at 30° C. were diluted in prewarmed liquid selective media to 0.1 at OD600 (ODculture). 100 μl of the cell culture was spiked to each well of a.96-well microtiter plate. Ligand (2 μl diluted in DMSO) was added to each well giving a final concentration of DMSO of 2%. As a control, 2 μl of DMSO were also added to additional test wells. The final concentration of the tested compounds in the media is 10 μM. The cells were incubated in the presence of ligand in a shaker at 30° C. After 4 hours of incubation, 100 μl of 2× “Z” Sarcosine-ONPG buffer (120 mM Na2HPO4, 80 mM NaH2PO4, 20 mM KCl, 2 mM MgSO4, 100 mM beta-mercaptoethanol (Sigma), pH 7.0, 0.4% lauroyl sarcosine (Sigma), 4 mg/mL ONPG (Diagnostic Chemicals limited) was added to each well and the plate was further incubated at 37° C. The 2× “Z” Sarcosine-ONPG buffer is freshly prepared or stored at −20° C. prior to use. After incubation at 37° C. for 1 hour. The reaction was stopped by adding 100 μL of quenching solution 0.5 M Na2CO3 and OD405 (ODreaction) and beta-galactosidase activity was measured in a micro plate reader (Biotek) at a wave length of 405–450 nanometers. The effect of copper on enhancement of the transactivation response mediated by the ligands tested was studied by adding CuSO4 to the media to a final concentration of 10 μM.
(§5) Using the transformation method set forth above, yeast were co-transformed with a reporter gene as shown in FIG. 2 and the expression vector encoding the full-length D. melanogaster ecdysone receptor, DmEcR (FIG. 3A) in the presence or absence of the Dm EcR heterodimer partner, DmUSP (FIG. 4A). Transformed cells were incubated with DMSO alone as a control or with a proprietary ecdysone receptor ligand (Rohm & Haas compound RH5992—tebufenozide) at final concentration 10 μM for 4 hours. The samples were then assayed for β-galactosidase activity as described above. […] As the N-terminal portion of the Dm EcR receptor is reported to play a role in ligand independent transactivation, an expression vector containing an N-terminal deletion in the EcR was constructed (see FIG. 3B) and assessed in the β-galactosidase assays described above. […] Restoration of ligand dependent transactivation was observed only when the DmΔN EcR, DmUSP and co-activator GRIP1 were coexpressed. See Table I. The data obtained indicate that the efficiency of ligand-dependent transactivation of the ecdysone receptor requires both heterodimer formation between EcR and USP, and proper interaction with co-activator GRIP1. […]

Dm ΔN EcR + DmUSP = molecular target: T5, Dm ΔN EcR + DmUSP (Drosophila melanogaster, UniProt P34021); conditions: 4 hours
T5 construct: ubiquitin (human, 76 aa) (N, cleaved yes); expressed in transfected cells
Procedure: as §1, §4, §5

Dm EcR-B1 = molecular target: T6, Dm EcR-B1 (Drosophila melanogaster, UniProt P34021); conditions: RH 5992 10 μM, 4 hours, DMSO control 1.090
T6 construct: ubiquitin (human, 76 aa) (N, cleaved yes); expressed in transfected cells
Procedure: as §1, §4, §5

[3] = molecular target: T7, Dm ΔN EcR + Dm ΔA/B USP + GRIP1 (Drosophila melanogaster, UniProt P34021); conditions: RH 5992 10 μM, 4 hours, DMSO control 0.340
T7 construct: ubiquitin (human, 76 aa) (N, cleaved yes); expressed in transfected cells
Procedure: as §1, §4, §5

Dm EcR + DmUSP = molecular target: T8, Dm EcR + DmUSP (Drosophila melanogaster, UniProt P34021); conditions: RH 5992 10 μM, 4 hours, DMSO control 2.091
T8 construct: ubiquitin (human, 76 aa) (N, cleaved yes); expressed in transfected cells
Procedure: as §1, §4, §5

T5 sequence (P34021 221-878 limits assumed, stated change not applied): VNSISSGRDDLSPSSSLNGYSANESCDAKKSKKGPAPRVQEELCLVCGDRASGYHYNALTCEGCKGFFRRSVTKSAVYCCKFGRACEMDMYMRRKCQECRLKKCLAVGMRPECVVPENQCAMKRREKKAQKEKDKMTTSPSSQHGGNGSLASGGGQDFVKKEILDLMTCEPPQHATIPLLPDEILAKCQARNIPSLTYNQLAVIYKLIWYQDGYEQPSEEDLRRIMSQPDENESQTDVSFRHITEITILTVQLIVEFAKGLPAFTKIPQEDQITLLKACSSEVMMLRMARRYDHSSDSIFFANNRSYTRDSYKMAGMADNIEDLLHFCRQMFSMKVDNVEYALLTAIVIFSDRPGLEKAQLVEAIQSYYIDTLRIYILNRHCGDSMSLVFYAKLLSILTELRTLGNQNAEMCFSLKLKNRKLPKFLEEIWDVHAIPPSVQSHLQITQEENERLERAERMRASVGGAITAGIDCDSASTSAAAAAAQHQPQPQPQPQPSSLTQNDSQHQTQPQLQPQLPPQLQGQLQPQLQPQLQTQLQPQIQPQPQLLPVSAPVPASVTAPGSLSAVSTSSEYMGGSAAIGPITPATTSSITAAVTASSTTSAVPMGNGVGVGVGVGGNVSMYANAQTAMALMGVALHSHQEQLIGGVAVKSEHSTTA
T5 sequence (P20153 whole entry partner): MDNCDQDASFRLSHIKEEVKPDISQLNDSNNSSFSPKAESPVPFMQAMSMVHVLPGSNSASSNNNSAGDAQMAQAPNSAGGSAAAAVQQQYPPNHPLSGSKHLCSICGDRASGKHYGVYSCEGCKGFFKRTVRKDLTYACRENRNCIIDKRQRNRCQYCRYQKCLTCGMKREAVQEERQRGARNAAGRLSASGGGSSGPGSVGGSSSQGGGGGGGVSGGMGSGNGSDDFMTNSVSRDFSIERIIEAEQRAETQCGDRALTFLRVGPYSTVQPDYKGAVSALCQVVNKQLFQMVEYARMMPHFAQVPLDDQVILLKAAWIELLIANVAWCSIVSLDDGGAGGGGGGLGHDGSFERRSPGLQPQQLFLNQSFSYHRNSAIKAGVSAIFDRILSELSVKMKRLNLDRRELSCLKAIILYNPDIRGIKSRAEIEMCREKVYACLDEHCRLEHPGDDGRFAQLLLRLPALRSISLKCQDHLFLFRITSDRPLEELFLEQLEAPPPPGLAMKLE
T7 sequence (P34021 221-878, stated change not applied): as the sequence (P34021 221-878 limits assumed, stated change not applied) above
T7 sequence (P20153 with tags, fused parts or gaps partner): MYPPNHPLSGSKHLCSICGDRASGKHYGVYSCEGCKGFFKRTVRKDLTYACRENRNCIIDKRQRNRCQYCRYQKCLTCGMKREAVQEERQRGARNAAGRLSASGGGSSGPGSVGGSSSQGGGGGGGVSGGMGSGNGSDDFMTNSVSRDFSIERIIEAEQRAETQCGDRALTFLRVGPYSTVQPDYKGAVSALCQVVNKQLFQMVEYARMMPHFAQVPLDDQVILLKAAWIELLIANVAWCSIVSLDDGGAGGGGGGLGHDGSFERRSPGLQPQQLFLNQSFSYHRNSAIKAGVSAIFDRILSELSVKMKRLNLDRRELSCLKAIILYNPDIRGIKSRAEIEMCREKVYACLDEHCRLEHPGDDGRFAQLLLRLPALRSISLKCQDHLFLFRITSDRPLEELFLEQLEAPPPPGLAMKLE
T4 sequence (P34021 221-878 limits assumed, stated change not applied): as the sequence (P34021 221-878 limits assumed, stated change not applied) above
T4 sequence (P20153 whole entry partner): as the sequence (P20153 whole entry partner) above
T4 sequence (Q61026 322-1121 partner limits assumed): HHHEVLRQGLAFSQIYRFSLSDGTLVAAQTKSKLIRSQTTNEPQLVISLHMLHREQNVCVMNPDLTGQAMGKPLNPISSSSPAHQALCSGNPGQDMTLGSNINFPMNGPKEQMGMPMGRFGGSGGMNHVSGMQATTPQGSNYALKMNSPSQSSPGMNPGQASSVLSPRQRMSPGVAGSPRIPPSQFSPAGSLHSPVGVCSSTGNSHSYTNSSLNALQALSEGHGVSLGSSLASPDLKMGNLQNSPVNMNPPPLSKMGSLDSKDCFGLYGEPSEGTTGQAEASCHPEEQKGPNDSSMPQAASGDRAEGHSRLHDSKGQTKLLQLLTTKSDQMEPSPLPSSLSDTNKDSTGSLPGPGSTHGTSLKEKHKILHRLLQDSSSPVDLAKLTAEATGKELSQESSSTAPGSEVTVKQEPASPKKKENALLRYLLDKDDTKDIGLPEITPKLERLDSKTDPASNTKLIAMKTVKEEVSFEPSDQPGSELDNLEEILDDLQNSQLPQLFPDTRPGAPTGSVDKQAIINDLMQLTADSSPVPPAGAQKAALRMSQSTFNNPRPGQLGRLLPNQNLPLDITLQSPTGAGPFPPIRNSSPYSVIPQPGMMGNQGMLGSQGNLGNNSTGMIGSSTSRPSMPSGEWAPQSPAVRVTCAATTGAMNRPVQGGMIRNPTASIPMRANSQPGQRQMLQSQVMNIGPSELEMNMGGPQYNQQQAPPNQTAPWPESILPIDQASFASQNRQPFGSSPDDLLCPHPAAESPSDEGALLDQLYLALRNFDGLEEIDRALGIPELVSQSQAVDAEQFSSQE
T1 sequence (P49880 other isoform, or with tags, fused parts or gaps DEL155-194): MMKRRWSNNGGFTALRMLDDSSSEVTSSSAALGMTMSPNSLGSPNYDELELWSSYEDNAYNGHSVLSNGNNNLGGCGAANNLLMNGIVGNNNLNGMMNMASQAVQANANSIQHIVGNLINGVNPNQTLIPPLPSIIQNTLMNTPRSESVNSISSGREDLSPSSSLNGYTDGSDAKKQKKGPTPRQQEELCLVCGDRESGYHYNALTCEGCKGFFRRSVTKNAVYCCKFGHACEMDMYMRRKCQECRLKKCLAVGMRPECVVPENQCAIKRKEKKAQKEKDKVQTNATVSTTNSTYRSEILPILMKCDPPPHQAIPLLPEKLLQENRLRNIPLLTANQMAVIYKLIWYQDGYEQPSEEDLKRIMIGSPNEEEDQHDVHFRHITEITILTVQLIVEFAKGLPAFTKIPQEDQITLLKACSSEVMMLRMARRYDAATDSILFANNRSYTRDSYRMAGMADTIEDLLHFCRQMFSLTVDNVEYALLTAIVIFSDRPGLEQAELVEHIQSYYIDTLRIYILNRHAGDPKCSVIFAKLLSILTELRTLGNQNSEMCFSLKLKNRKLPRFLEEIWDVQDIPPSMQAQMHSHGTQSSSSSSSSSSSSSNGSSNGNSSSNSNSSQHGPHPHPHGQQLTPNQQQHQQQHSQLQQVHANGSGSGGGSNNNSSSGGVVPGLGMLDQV
T6 sequence (P34021 whole entry): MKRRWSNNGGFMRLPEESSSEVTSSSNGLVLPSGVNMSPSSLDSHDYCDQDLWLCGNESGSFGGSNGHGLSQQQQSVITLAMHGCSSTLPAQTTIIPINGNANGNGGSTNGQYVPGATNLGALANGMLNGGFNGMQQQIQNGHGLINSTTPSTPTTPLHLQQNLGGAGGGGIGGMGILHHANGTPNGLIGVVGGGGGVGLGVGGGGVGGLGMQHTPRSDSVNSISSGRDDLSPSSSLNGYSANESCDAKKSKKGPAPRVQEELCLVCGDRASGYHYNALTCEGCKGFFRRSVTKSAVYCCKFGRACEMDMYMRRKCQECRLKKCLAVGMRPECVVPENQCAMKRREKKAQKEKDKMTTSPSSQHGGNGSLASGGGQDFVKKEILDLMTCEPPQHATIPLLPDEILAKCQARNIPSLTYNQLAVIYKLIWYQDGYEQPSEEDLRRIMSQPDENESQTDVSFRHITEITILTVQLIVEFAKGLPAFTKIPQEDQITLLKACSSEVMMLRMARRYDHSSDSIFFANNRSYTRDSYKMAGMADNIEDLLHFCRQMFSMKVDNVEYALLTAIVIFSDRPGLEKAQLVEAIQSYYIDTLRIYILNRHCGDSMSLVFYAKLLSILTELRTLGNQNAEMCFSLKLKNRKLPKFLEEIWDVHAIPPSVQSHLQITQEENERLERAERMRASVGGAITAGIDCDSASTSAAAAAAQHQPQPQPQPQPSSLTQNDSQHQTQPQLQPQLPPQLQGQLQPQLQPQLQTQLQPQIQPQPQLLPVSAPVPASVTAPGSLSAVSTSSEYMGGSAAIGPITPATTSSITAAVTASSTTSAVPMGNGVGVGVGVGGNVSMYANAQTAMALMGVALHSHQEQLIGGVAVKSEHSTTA
T8 sequence (P34021 whole entry): as above
T8 sequence (P20153 whole entry partner): as the sequence (P20153 whole entry partner) above
T2 sequence (P49880 with tags, fused parts or gaps): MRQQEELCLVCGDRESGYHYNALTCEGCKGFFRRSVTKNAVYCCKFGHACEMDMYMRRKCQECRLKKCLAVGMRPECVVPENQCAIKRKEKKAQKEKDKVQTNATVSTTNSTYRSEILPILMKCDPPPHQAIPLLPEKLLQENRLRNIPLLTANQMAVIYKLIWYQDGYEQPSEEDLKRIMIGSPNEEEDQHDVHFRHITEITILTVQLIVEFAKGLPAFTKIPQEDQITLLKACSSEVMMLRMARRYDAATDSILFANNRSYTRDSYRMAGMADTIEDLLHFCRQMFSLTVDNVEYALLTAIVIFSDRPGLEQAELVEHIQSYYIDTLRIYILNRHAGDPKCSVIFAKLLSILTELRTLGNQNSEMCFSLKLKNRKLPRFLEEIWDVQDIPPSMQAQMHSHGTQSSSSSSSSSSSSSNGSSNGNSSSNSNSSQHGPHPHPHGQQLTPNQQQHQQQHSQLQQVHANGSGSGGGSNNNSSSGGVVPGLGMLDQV
T3 sequence (P49880 with tags, fused parts or gaps): as above

CCc1ccc(C(=O)NN(C(=O)c2cc(C)cc(C)c2)C(C)(C)C)cc1 [RH 5992, tebufenozide]
β-galactosidase activity (Aa EcR): 2.750
β-galactosidase activity (Aa ΔA/B EcR + Aa USPb): 0.184
β-galactosidase activity [1]: 2.026
β-galactosidase activity [2]: 2.537
transactivation of the reporter gene (in words) (Dm ΔN EcR + DmUSP; 10 μM, DmEcR with N-terminal deletion, DmUSP present or absent, no GRIP1): incapable of transactivating the reporter gene
β-galactosidase activity (Dm ΔN EcR + DmUSP; RH 5992 10 μM, yeast, Dm ΔN EcR + DmUSP, DMSO control 0.152): 0.182
β-galactosidase activity (Dm EcR-B1): 1.200
β-galactosidase activity [3]: 2.323
β-galactosidase activity (Dm EcR + DmUSP): 1.953
